Measurements reported in the supplement of paper PMC10307832.

Experiments:
Test in all cases: relative viability (nuclei count vs DMSO), 5 days (fraction); higher = more cells survive
[1] = compound: C=CCc1cccc(/C=N/NC(=O)CN2CCN(Cc3ccccc3)CC2)c1O [PAC-1] + O=C(c1cc(Cc2n[nH]c(=O)c3ccccc23)ccc1F)N1CCN(C(=O)C2CC2)CC1 [Olaparib] (partner 8 µM)
Method in brief: (§1)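 Relative viability is defined as nuclei in treated wells over nuclei in vehicle wells. Duplicate plates were run and medians reported. Lung cancer cell lines in 1536-well plates were dosed by pin tool one day after seeding, with one drug or with a fixed anchor-drug dose plus five library-drug doses (not always all listed) in √10 steps, and nuclei were counted after 5 days.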

[2] = compound: C=CCc1cccc(/C=N/NC(=O)CN2CCN(Cc3ccccc3)CC2)c1O [PAC-1] + CC(C)C[C@H](NC(=O)[C@H](Cc1ccccc1)NC(=O)c1cnccn1)B(O)O [Bortezomib] (partner 0.002 µM)
Method in brief: as §1

[3] = compound: C=CCc1cccc(/C=N/NC(=O)CN2CCN(Cc3ccccc3)CC2)c1O [PAC-1] + CS(=O)(=O)N1CCN(Cc2cc3nc(-c4cccc5[nH]ncc45)nc(N4CCOCC4)c3s2)CC1 [Pictilisib] (partner 1 µM)
Method in brief: as §1

[4] = compound: C=CC(=O)N1CCC[C@@H](n2nc(-c3ccc(Oc4ccccc4)cc3)c3c(N)ncnc32)C1 [Ibrutinib] + Cc1cc(Nc2cc(N3CCN(C)CC3)nc(Sc3ccc(NC(=O)C4CC4)cc3)n2)n[nH]1 [Tozasertib] (partner 0.1 µM)
Method in brief: as §1

Row | Cell Line | relative viability ([1]; first compound 0.02 µM) | relative viability ([1]; first compound 0.06325 µM) | relative viability ([1]; first compound 0.2 µM) | relative viability ([1]; first compound 2 µM) | relative viability ([2]; first compound 0.02 µM) | relative viability ([2]; first compound 0.06325 µM) | relative viability ([2]; first compound 0.2 µM) | relative viability ([2]; first compound 2 µM) | relative viability ([3]; first compound 0.02 µM) | relative viability ([3]; first compound 0.06325 µM) | relative viability ([3]; first compound 0.2 µM) | relative viability ([3]; first compound 2 µM) | relative viability ([4]; first compound 0.005 µM) | relative viability ([4]; first compound 0.01581 µM) | relative viability ([4]; first compound 0.05 µM) | relative viability ([4]; first compound 0.1581 µM) | relative viability ([4]; first compound 0.5 µM)
1 | LOU-NH91 | 0.884 | 0.908 | 0.92 | 0.879 | 0.452 | 0.475 | 0.469 | 0.526 | 0.494 | 0.521 | 0.545 | 0.514 | 0.699 | 0.582 | 0.581 | 0.648 | 0.488
2 | HCC-366 | 0.314 | 0.411 | 0.306 | 0.378 | 1.01 | 1.04 | 1.07 | 1.14 | 0.203 | 0.142 | 0.149 | 0.184 | 0.127 | 0.116 | 0.107 | 0.118 | 0.0964
3 | CAL-12T | 0.719 | 0.701 | 0.72 | 0.695 | 0.95 | 1.09 | 1.1 | 0.925 | 0.202 | 0.44 | 0.482 | 0.568 | 0.324 | 0.309 | 0.268 | 0.365 | 0.151
4 | NCI-H1355 | 0.78 | 0.693 | 0.724 | 0.74 | 1.15 | 1.28 | 1.14 | 1.2 | 0.386 | 0.475 | 0.393 | 0.492 | 0.601 | 0.518 | 0.517 | 0.62 | 0.491
5 | ABC-1 | 0.781 | 0.668 | 0.848 | 0.741 | 0.336 | 0.371 | 0.258 | 0.319 | 0.624 | 0.665 | 0.545 | 0.74 | 0.151 | 0.149 | 0.159 | 0.198 | 0.187
6 | NCI-H2405 | 0.879 | 0.894 | 0.922 | 0.94 | 0.981 | 1.02 | 0.959 | 0.977 | 0.44 | 0.455 | 0.45 | 0.376 | 0.85 | 0.739 | 0.798 | 0.75 | 0.717
7 | NCI-H1648 | 0.573 | 0.646 | 0.889 | 0.832 | – | – | – | – | – | – | – | – | 0.549 | 0.368 | 0.467 | 0.537 | 0.358
8 | NCI-H650 | 0.328 | 0.41 | 0.387 | 0.381 | 0.755 | 0.871 | 0.736 | 0.735 | 1.07 | 0.951 | 0.86 | 0.874 | 0.783 | 0.672 | 0.758 | 0.808 | 0.782
9 | NCI-H2228 | 0.619 | 0.607 | 0.619 | 0.646 | 0.897 | 1.26 | 1.03 | 1.51 | 0.42 | 0.507 | 0.397 | 0.362 | 0.282 | – | 0.253 | 0.307 | 0.187
10 | EPLC-272H | 0.763 | 0.817 | 0.606 | 0.567 | – | 0.895 | 1.02 | 1 | – | 0.349 | 0.32 | 0.268 | 0.171 | 0.171 | 0.25 | 0.126 | 0.193
